Reference: patent publication US11655268B2, “Nucleoside or nucleotide derivatives, and uses thereof” (ST Pharm Co., Ltd., priority 2018, dated 2023)
Read-outs that look alike come from different tables or passages of the source.

Columns and labels:
DENV = experiment: Reduction in viral infection, dengue virus in Vero cells, immunofluorescence (4G2 antibody); assay type: cell-based, Dengue virus New Guinea C (NGC); conditions: 72 h, read-out: EC50 DENV
MERS-CoV = experiment: microbe, parasite or virus in culture; assay type: cell-based, MERS virus (MERS-CoV/KOR/KNIH/002_05_2015); conditions: Middle East respiratory syndrome-related coronavirus, Huh-7, 72 h, read-out: EC50 MERS-CoV
in vitro [1] = conditions: human
CHIKV = experiment: Cytopathic effect reduction, Chikungunya virus in Vero cells, MTT; assay type: cell-based; conditions: 72 h, read-out: EC50 CHIKV
in vitro [2] = conditions: dog
Influenza virus B/Lee/40 = experiment: Cytopathic effect reduction, influenza B Lee in MDCK cells, MTT; assay type: cell-based; conditions: for Selectivity index FluB Lee: CC50/EC50; for EC50: read-out: Anti-Flu activity EC50 FluB Lee
[3] = Cytotoxicity (CC50) in Vero cells; conditions: African green monkey
ZIKV = experiment: Reduction in viral infection, zika virus in Vero cells, immunofluorescence (4G2 antibody); assay type: cell-based, Zikavirus (MR766); conditions: 72 h, day 3 after infection
MDCK cells = conditions: read-out: Toxicity CC50, day 3, MTT
[4] = tested on: Madin-Darby Canine Kidney (MDCK) cells; conditions: 100 μM for 3 days; cited from earlier work
in vitro [5] = conditions: human; remark: listed apart in the source
FIPV = experiment: Cytopathic effect reduction, FIPV in CRFK cells, MTT; assay type: cell-based, feline infectious peritonitis virus (FIPV); conditions: Alphacoronavirus 1, 72 h; CRFK cells, day 3 after infection; read-out: EC50 FIPV
in vitro [6] = conditions: cat
hCoV (229E) = experiment: microbe, parasite or virus in culture; assay type: cell-based, Human coronavirus hCoV 229E; conditions: MRC5, 72 h; MRC-5 cells, day 3 after infection; read-out: EC50 hCoV (229E)
[7] = CC50 (CHIKV), Vero cells, CHIKV test, MTT
[8] = CC50 (DENV), Vero cells, DENV test

**Q.** For `Cc1nccc(C(=O)Nc2ccn(C3O[C@H](CO)[C@@H](O)[C@H]3F)c(=O)n2)n1` (stereo in doubt) [Example 29, N-(1-((2S,3R,4R,5R)-3-fluoro-4-hydroxy-5-(hydroxymethyl)tetrahydrofuran-2-yl)-2-oxo-1,2-dihydropyrimidin-4-yl)-2-methylpyrimidin-4-carboxamide], which EC50 (DENV) is on record?
**A.** Its EC50 is greater than 100 µM.

**Q.** And the EC50 (MERS-CoV)?
**A.** Its EC50 is greater than 100 µM.

**Q.** What about the CC50 at 3 days (in vitro [1]) of the same molecule?
**A.** The CC50 at 3 days was greater than 100 µM.

**Q.** What about the EC50 (CHIKV) of the same molecule?
**A.** The EC50 was 24 µM.

**Q.** What about the CC50 at 3 days (in vitro [2]) of the same molecule?
**A.** The CC50 at 3 days was greater than 100 µM.

**Q.** And the “Selectivity index FluB Lee” value (Influenza virus B/Lee/40)?
**A.** The value was greater than 17.9.

**Q.** What about the EC50 (Influenza virus B/Lee/40; MDCK, 72 h) of the same molecule?
**A.** The EC50 was 5.6 µM.

**Q.** And the CC50 at 3 days [3, 7]?
**A.** The CC50 at 3 days was greater than 100 µM.

**Q.** What about the CC50 at 3 days [3, 8] of the same molecule?
**A.** The CC50 at 3 days was greater than 100 µM.

**Q.** What about the CC50 at 3 days ([3]; CC50, Vero cells, ZIKV test) of the same molecule?
**A.** The CC50 at 3 days was greater than 100 µM.

**Q.** What about the EC50 (ZIKV) of the same molecule?
**A.** Its EC50 is greater than 100 µM.

**Q.** Which EC50 (DENV) does the source give for `O=C(Nc1ccn(C2O[C@H](CO)[C@@H](O)[C@H]2F)c(=O)n1)c1ccc([N+](=O)[O-])cn1` (stereo in doubt) [Example 30, N-(1-((2S,3R,4R,5R)-3-fluoro-4-hydroxy-5-(hydroxymethyl)tetrahydrofuran-2-yl)-2-oxo-1,2-dihydropyrimidin-4-yl)-5-nitropicolinamide] here?
**A.** Its EC50 is 77.9 µM.

**Q.** And the EC50 (MERS-CoV)?
**A.** The EC50 was greater than 100 µM.

**Q.** And the CC50 at 3 days (in vitro [1])?
**A.** Its CC50 at 3 days is greater than 100 µM.

**Q.** What about the EC50 (CHIKV) of the same molecule?
**A.** The EC50 was 62.5 µM.

**Q.** What about the CC50 at 3 days (in vitro [2]) of the same molecule?
**A.** Its CC50 at 3 days is greater than 100 µM.

**Q.** What about the “Selectivity index FluB Lee” value (Influenza virus B/Lee/40) of the same molecule?
**A.** The value was greater than 15.4.

**Q.** And the EC50 (Influenza virus B/Lee/40; MDCK, 72 h)?
**A.** Its EC50 is 6.5 µM.

**Q.** What about the CC50 at 3 days [3, 7] of the same molecule?
**A.** The CC50 at 3 days was greater than 100 µM.

**Q.** What about the CC50 at 3 days [3, 8] of the same molecule?
**A.** Its CC50 at 3 days is greater than 100 µM.

**Q.** What about the CC50 at 3 days ([3]; CC50, Vero cells, ZIKV test) of the same molecule?
**A.** Its CC50 at 3 days is greater than 100 µM.

**Q.** What about the EC50 (ZIKV) of the same molecule?
**A.** The EC50 was greater than 100 µM.

**Q.** Which results are given for `O=C(Nc1ccn(C2O[C@H](CO)[C@@H](O)[C@H]2F)c(=O)n1)c1cccnn1` (stereo in doubt) [Example 33, N-(1-((2S,3R,4R,5R)-3-fluoro-4-hydroxy-5-(hydroxymethyl)tetrahydrofuran-2-yl)-2-oxo-1,2-dihydropyrimidin-4-yl)pyridazine-3-carboxamide]?
**A.** EC50 (DENV): > 100 µM; EC50 (MERS-CoV): > 100 µM; CC50 at 3 days (in vitro [1]): > 100 µM; EC50 (CHIKV): 86.4 µM; CC50 at 3 days (in vitro [2]): > 100 µM; Selectivity index FluB Lee (Influenza virus B/Lee/40): >12.8; EC50 (Influenza virus B/Lee/40; MDCK, 72 h): 7.8 µM; CC50 at 3 days [3, 7]: > 100 µM; CC50 at 3 days [3, 8]: > 100 µM; CC50 at 3 days ([3]; CC50, Vero cells, ZIKV test): > 100 µM; EC50 (ZIKV): > 100 µM

**Q.** Which EC50 (DENV) does the source give for `O=C(Nc1ccn(C2O[C@H](CO)[C@@H](O)[C@H]2F)c(=O)n1)c1ccncn1` (stereo in doubt) [Example 36, N-(1-((2S,3R,4R,5R)-3-fluoro-4-hydroxy-5-(hydroxymethyl)tetrahydrofuran-2-yl)-2-oxo-1,2-dihydropyrimidin-4-yl)pyrimidine-4-carboxamide] here?
**A.** The EC50 was greater than 100 µM.

**Q.** And the EC50 (MERS-CoV)?
**A.** The EC50 was greater than 100 µM.

**Q.** What about the CC50 at 3 days (in vitro [1]) of the same molecule?
**A.** The CC50 at 3 days was greater than 100 µM.

**Q.** What about the EC50 (CHIKV) of the same molecule?
**A.** Its EC50 is 57.7 µM.

**Q.** What about the CC50 at 3 days (in vitro [2]) of the same molecule?
**A.** The CC50 at 3 days was greater than 100 µM.

**Q.** And the “Selectivity index FluB Lee” value (Influenza virus B/Lee/40)?
**A.** The value was greater than 8.8.

**Q.** And the EC50 (Influenza virus B/Lee/40; MDCK, 72 h)?
**A.** The EC50 was 11.4 µM.

**Q.** What about the CC50 at 3 days [3, 7] of the same molecule?
**A.** Its CC50 at 3 days is greater than 100 µM.

**Q.** What about the CC50 at 3 days [3, 8] of the same molecule?
**A.** Its CC50 at 3 days is greater than 100 µM.

**Q.** And the CC50 at 3 days ([3]; CC50, Vero cells, ZIKV test)?
**A.** The CC50 at 3 days was greater than 100 µM.

**Q.** What about the EC50 (ZIKV) of the same molecule?
**A.** Its EC50 is greater than 100 µM.

**Q.** With `N#Cc1ccc(C(=O)Nc2ccn(C3O[C@H](CO)[C@@H](O)[C@H]3F)c(=O)n2)nc1` (stereo in doubt) [Example 37, 5-cyano-N-(1-((2S,3R,4R,5R)-3-fluoro-4-hydroxy-5-(hydroxymethyl)tetrahydrofuran-2-yl)-2-oxo-1,2-dihydropyrimidin-4-yl)picolinamide] as the molecule, how does the EC50 (DENV) read?
**A.** Its EC50 is greater than 100 µM.

**Q.** And the EC50 (MERS-CoV)?
**A.** The EC50 was greater than 100 µM.

**Q.** And the CC50 at 3 days (in vitro [1])?
**A.** Its CC50 at 3 days is greater than 100 µM.

**Q.** What about the EC50 (CHIKV) of the same molecule?
**A.** Its EC50 is 51.7 µM.

**Q.** And the CC50 at 3 days (in vitro [2])?
**A.** The CC50 at 3 days was greater than 100 µM.

**Q.** What about the “Selectivity index FluB Lee” value (Influenza virus B/Lee/40) of the same molecule?
**A.** Its value is greater than 6.6.

**Q.** What about the EC50 (Influenza virus B/Lee/40; MDCK, 72 h) of the same molecule?
**A.** The EC50 was 15.1 µM.

**Q.** What about the CC50 at 3 days [3, 7] of the same molecule?
**A.** The CC50 at 3 days was greater than 100 µM.

**Q.** What about the CC50 at 3 days [3, 8] of the same molecule?
**A.** The CC50 at 3 days was greater than 100 µM.

**Q.** What about the CC50 at 3 days ([3]; CC50, Vero cells, ZIKV test) of the same molecule?
**A.** Its CC50 at 3 days is greater than 100 µM.

**Q.** And the EC50 (ZIKV)?
**A.** Its EC50 is greater than 100 µM.

**Q.** With `Nc1ccn([C@@H]2O[C@H](CO)[C@@H](O)[C@H]2F)c(=O)n1` [2′-FdC, reference compound] as the molecule, how does the CC50 (MDCK cells) read?
**A.** Its CC50 is greater than 100 µM.

**Q.** And the EC50 (Influenza virus B/Lee/40)?
**A.** Its EC50 is 5.2 µM.

**Q.** For `Nc1ccn([C@@H]2O[C@H](CO)[C@@H](O)C2(F)F)c(=O)n1` [Gemcitabine, reference compound], which EC50 (MERS-CoV) is on record?
**A.** Its EC50 is 1.1 µM.

**Q.** And the cell death [4]?
**A.** Its cell death is “about 50%”.

**Q.** What about the CC50 at 3 days (in vitro [1]) of the same molecule?
**A.** Its CC50 at 3 days is greater than 100 µM.

**Q.** And the CC50 (in vitro [5])?
**A.** Its CC50 is greater than 100 µM.

**Q.** What about the CC50 (in vitro [2]) of the same molecule?
**A.** Its CC50 is 241 µM.

**Q.** What about the “Selectivity index FluB Lee” value (Influenza virus B/Lee/40) of the same molecule?
**A.** The value was 185.2.

**Q.** What about the EC50 (Influenza virus B/Lee/40; MDCK, 72 h) of the same molecule?
**A.** The EC50 was 1.3 µM.

**Q.** And the EC50 (FIPV)?
**A.** Its EC50 is 21 µM.

**Q.** And the CC50 (in vitro [6])?
**A.** The CC50 was 92 µM.

**Q.** And the EC50 (hCoV (229E))?
**A.** Its EC50 is 0.44 µM.
